From patent US6867043B2, “Peptides that deliver antisense oligonucleotides which downregulate protein expression in cells” (The Trustees of Columbia University in the City of New York, priority 2001, dated 2005)
Oligonucleotides are written 5' to 3', each unit as a sugar letter and its base; * is a phosphorothioate linkage, no mark a phosphodiester; rarer units and linkages stand in square brackets, end groups in braces. Plain capitals give the bases only. {Fluorescein} = fluorescein label; d = 2'-deoxy (DNA)

Assays:
[1] = test system: PKC-α; assay: Western blot of PKC-α protein expression in T24 cells; assay type: cell-based; settings: for inhibition of PKC-α protein expression (antisense activity), in words: short-peptide experiments, 2 μM oligonucleotide, 25 μM chloroquine preincubation
Procedure: (§1) Experiments using the protamine-NLS peptides to deliver antisense oligonucleotides were performed in T24 bladder carcinoma and PC-3 prostate carcinoma cells. In addition to the 20-mer ISIS 3521, the 18-mer phosphorothioate oligonucleotide G3139 (SEQ ID NO:6) was also employed. G3139 is targeted to the first six codons of the human bcl-2 open reading frame. […] The expression of PKC-α protein was assayed by Western blotting after 24 hr, while the expression of bcl-2 protein in PC3 cells was assayed similarly after a further 48 hr incubation in RPMI media containing 10% FBS. In both cases, the incubations were performed in the continuous presence of the peptide/oligonucleotide complexes.
Treatment of cells with oligonucleotide-peptide complexes: Cells were grown in six-well plates until 65-75% confluent. […] The solution was mixed gently and incubated at room temperature for 30 min to allow oligonucleotide-peptide complexes to form. […] The cells were then incubated at 37° C. for 24 hr (for PKC-α) or re-fed with complete McCoy's 5A media containing 10% FBS and allowed to incubate for an additional 72 hr (for bcl-2) before cell lysis and extract preparation.
(§2) Western Blotting: Cells were treated with peptide-oligodeoxynucleotide complexes, scraped, washed with cold PBS and then extracted in […] of lysis buffer [50 mM Tris-HCl, pH 7.5; 1% NP-40; 0.25% sodium deoxycholate; 150 mM NaCl; 1 mM EGTA; 50 μg/mL Pefablock™ SC; 15 μg/mL aprotinin, leupeptin, chymostatin, and pepstatin A; 1 mM Na3VO4; 1 mM NaF] at 4° C. for 1 hr. Cell debris was removed by centrifugation at 14,000×g for 20 min at 4° C. Protein concentrations were determined using the Bio-Rad protein assay system (Bio-Rad Laboratories, Richmond, Calif.).
Aliquots of cell extracts containing 20-30 μg of protein were resolved by 10% or 12% SDS-polyacrylamide gel electrophoresis and transferred to Hybond ECL filter paper (Amersham, Arlington Heights, Ill.). […]

[2] = test system: T24 bladder carcinoma cells; assay: MTT cellular viability assay of paclitaxel-treated T24 cells; assay type: cell-based; settings: 3 days paclitaxel, 24 hours treatment, 8 μM peptide / 2 μM oligonucleotide, 25 μM chloroquine pretreatment
Procedure: As a measure of the effectiveness of the peptide-delivered antisense inhibition of PKC-α the cells treated with peptide were exposed to paclitaxel, a compound commonly used in cancer therapy to inhibit microtubule depolymerization.
Cellular viability assay: Cells were seeded in 96-well tissue culture plates and treated the next day with oligonucleotide-peptide complexes for 24 hr. […] The cells were incubated for 4 hr at 37° C., 5% CO2 with 0.5 mg/mL MTT in complete media. An equal volume of solubilization solution (10% SDS in 0.01 M HCl) was then added and allowed to incubate overnight at 37° C. After the formazan crystals were dissolved, the plates were read on a Dynatech MR600 Microplate Reader at 540 nm.
Statistical analysis of the results was performed using the Analysis ToolPack provided by Microsoft Excel. A Student's two-sample t-test, assuming unequal variances, was used to determine the equality of the means of two samples. The confidence level was 0.05.

[3] = test system: PKC-α; assay: Western blot of PKC-α protein expression in PC3 cells; assay type: cell-based; settings: for inhibition of PKC-α protein expression, in words: long-peptide experiments, ISIS 3521 0.25-2 μM, ISIS 4559 2 μM, 25 μM chloroquine pre-treatment required; for inhibition of PKC-α protein expression (antisense activity), in words: short-peptide experiments, 2 μM oligonucleotide, 25 μM chloroquine preincubation
Procedure: as §1
Treatment of cells with oligonucleotide-peptide complexes: Cells were grown in six-well plates until 65-75% confluent. The peptides, at the stated peptide/oligonucleotide molar ratios, were diluted in 500 μL of Opti-MEM medium and oligonucleotide was then added up to the required concentration of 2 μM. The solution was mixed gently and incubated at room temperature for 30 min to allow oligonucleotide-peptide complexes to form. […] The cells were then incubated at 37° C. for 24 hr (for PKC-α) or re-fed with complete McCoy's 5A media containing 10% FBS and allowed to incubate for an additional 72 hr (for bcl-2) before cell lysis and extract preparation.
as §2
Aliquots of cell extracts containing 20-30 μg of protein were resolved by 10% or 12% SDS-polyacrylamide gel electrophoresis and transferred to Hybond ECL filter paper (Amersham, Arlington Heights, Ill.). Filters were incubated at room temperature for 1-2 h in Blotto A [5% non-fat milk powder in TBS-T:10 mM Tris-HCl, pH 8.0, 150 mM NaCl, 0.05% Tween 20 (for PKC-α) and 5% BSA in PBS, 0.5% Tween (for Bcl-2)] and then probed overnight at 4° C. with 1:1000 dilution of anti-PKC- or 1:500 dilution of anti-Bcl-2 in Blotto A. After washing in TBS-T or PBS-T buffer (3×7 min, room temperature), filters were incubated for 1 h at room temperature in 5% milk/TBS-T or 5% milk/PBS-T buffer containing a 1:3,000 dilution of peroxidase-conjugated anti-mouse secondary antibody. […]

[4] = test system: T24 cells; assay: Fluorescence confocal microscopy of oligonucleotide delivery to the cell nucleus; assay type: cell-based; settings: 2 μM 5′-fluorescein-labeled ISIS 3521; 8 μM and 6 μM peptide; T24 cells pretreated with 25 μM chloroquine; 24 hr
Procedure: The ability of the protamine-NLS peptides to deliver the oligonucleotides into the cell nucleus was evaluated by fluorescence confocal microscopy.
Confocal microscopy: Cells were seeded in glass bottom microwells (MatTec Corp., Mass.), and treated with peptide-oligodeoxynucleotide complexes at 37° C. for 24 hr. Cellular internalization was examined using an LSM 410 laser scanning confocal microscope (Zeiss, Thornwood, N.Y.) equipped with a krypton/argon laser and attached to a Zeiss Axiovert 100 TV microscope. The 515-540 nm bandpass for fluorescein was used. Z-series were taken of a 1 to 2 micron optical section at 2 μm intervals. For measurements, a maximum projection of all sections was employed.

[5] = test system: bcl-2; assay: Western blot of bcl-2 protein expression in PC3 cells; assay type: cell-based, human; settings: PC-3 cells; short-peptide experiments; 25 μM chloroquine pretreatment
Procedure: as §1
Treatment of cells with oligonucleotide-peptide complexes: Cells were grown in six-well plates until 65-75% confluent. […]
as §2, with “Cell debris was removed by centrifugation at 14,000×g for 20 min at 4° C.” left out, “Calif.). […]” for “Calif.).”

[6] = target: ISIS 3521; assay: Fluorescence titration: quenching of peptide Trp fluorescence by bound oligonucleotide; assay type: binding
Procedure: The interaction of ISIS 3521 (SEQ ID NO:5), a 20mer phosphorothioate antisense oligonucleotide, with the short and long protamine-NLS peptides (s-protamine-NLS and l-protamine-NLS) was evaluated by fluorescence spectroscopy. The peptide contains a single Trp residue (position 8 of the short peptide; SEQ ID NO:2) which can be excited at 290 nm and emits fluorescent light at 330 nm. The ability of a bound oligonucleotide to quench this fluorescent emission constitutes a relatively sensitive probe for the monitoring of molecular interactions.
The titration of a 5 μM solution of s-protamine-NLS (SEQ ID NO:2) with increasing concentrations of ISIS 3521 (SEQ ID NO:5), both in PBS and in Opti-MEM (without serum, to mimic transfection conditions), led to dramatic fluorescence quenching. At least two oligonucleotide binding modes can be easily discerned: At low oligonucleotide concentration (relative to s-protamine-NLS peptide) a plot of the decrease in fluorescence (due to quenching) vs. oligonucleotide concentration fits an equation of the Michaelis-Menton type. […] However, as oligonucleotide concentration is increased, Trp fluorescence continues to decline, but a similar plot no longer fits a Michaelis-Menton-type equation, and the binding becomes increasingly complex. Trp fluorescence is finally completely quenched (i.e., 100%) at a 4:1 molar ratio of peptide/oligonucleotide. […]

| Compound | inhibition of PKC-α protein expression (antisense activity), in words [1] | cellular viability (reduction in cell proliferation by MTT assay), in words [2] | inhibition of PKC-α protein expression, in words [3] | inhibition of PKC-α protein expression (antisense activity), in words [3] | delivery of fluoresceinated oligonucleotide to the cell nucleus [4] | other results |
| --- | --- | --- | --- | --- | --- | --- |
| 5′-GTTCTCGCTGGTGAGTTTCA-3′ (antisense dG*dT*dT*dC*dT*dC*dG*dC*dT*dG*dG*dT*dG*dA*dG*dT*dT*dT*dC*dA) [ISIS 3521] | completely ineffective | no effect on cell viability | did not have antisense effects | completely ineffective |  |  |
| 5′-fluorescein-labeled ISIS 3521: ISIS 3521 labeled with fluorescein at the 5′ end, for confocal microscopy (antisense {Fluorescein}-dG*dT*dT*dC*dT*dC*dG*dC*dT*dG*dG*dT*dG*dA*dG*dT*dT*dT*dC*dA) |  |  |  |  | internalized poorly |  |
| CCN(CC)CCCC(C)Nc1ccnc2cc(Cl)ccc12 (stereo not drawn) [chloroquine] | did not downregulate PKC-α expression |  |  | did not downregulate PKC-α expression |  | inhibition of Bcl-2 expression (antisense activity), in words [5]: totally inactive |
| RRRRRRWGRRRRRRPKKKRKV [s-protamine-NLS, peptide with shorter protamine fragment and SV40 large T-antigen nuclear localization signal] |  | no effect on cell viability |  |  | effectively delivered fluoresceinated oligonucleotide to the cell nucleus | Kd ([6]; 5 μM s-protamine-NLS titrated with ISIS 3521, low oligonucleotide concentration, R^2=0.99, read-out: Kd from Lineweaver-Burke (double reciprocal) plot of fluorescence quenching): 80 nM; Trp fluorescence quenched ([6]; at a 4:1 molar ratio of peptide/oligonucleotide): 100% |
| l-protamine-NLS: long Arg-rich protamine fragment peptide with C-terminal SV40 large T-antigen nuclear localization signal (RRRRSRRRRRRFGRRRRRRVWRRRRPKKKRKV; NOVEL PEPTIDE - SV40/PROTAMINE SOURCE) |  |  | no effect |  |  | inhibition of PKC-α protein expression, in words ([1]; long-peptide experiments, ISIS 3521 0.25, 0.5, 1 μM, ISIS 4559 2 μM, chloroquine not required): no effect |
| s-protamine-scrambled NLS: control peptide: short protamine fragment with scrambled NLS sequence (RRRRRRWGRRRRRRPKGKRKV; CONTROL PEPTIDE) |  |  |  |  | also promotes the delivery of the oligonucleotide to the nucleus |  |
